From article PMC9937529, “Mechanism of activation and biased signaling in complement receptor C5aR1” (Cell Research, 2023)
Square brackets hold non-standard residues; d marks the D form. Peptide text beside a SMILES is read from it. Nva = CCC[C@H](N)C(=O)O

Tests used:
C5aR1 wild type = biological target: T1, C5aR1 wild type (Homo sapiens, UniProt P21730); assay: BRET-based Gαi1–γ2 dissociation assay (G protein signaling); format: cell-based; conditions: HEK293, Gi protein dissociation assay (Fig. S10a), ligand 10 min, mean±SEM, n=3
T1 construct: expressed in transfected cells; host or cells: HEK293
T1 sequence (P21730 1-350): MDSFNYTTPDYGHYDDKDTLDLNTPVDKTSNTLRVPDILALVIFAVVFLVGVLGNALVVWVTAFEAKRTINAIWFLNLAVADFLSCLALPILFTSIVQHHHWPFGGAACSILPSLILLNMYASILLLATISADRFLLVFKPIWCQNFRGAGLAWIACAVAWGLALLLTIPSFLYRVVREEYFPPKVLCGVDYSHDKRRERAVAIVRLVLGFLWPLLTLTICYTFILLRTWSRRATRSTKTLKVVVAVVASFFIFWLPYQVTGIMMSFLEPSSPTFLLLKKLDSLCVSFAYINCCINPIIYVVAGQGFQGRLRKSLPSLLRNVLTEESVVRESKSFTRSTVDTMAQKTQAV
Procedure: The activation of C5aR1 induced by ligands was measured through BRET-based Gαi1 dissociation from Gβ1γ2 as previously described.[60] HEK293 cells were plated in 6-well plates containing 600,000–800,000 cells per well and cultured 24 h at 37 °C in cell incubator. […] After transfection for 24 h, cells were harvested and dispensed into 96-well white plates and allowed to culture overnight. […] Next, prepared ligands were added into cells for 10 min and the second BRET signal was measured. […] Data were analyzed using a simulation dose-response in GraphPad Prism 7.

C5aR1-WT = biological target: T2, C5aR1-WT (Homo sapiens, UniProt P21730); assay: BRET assay measuring β-arrestin 2 recruitment; format: cell-based; conditions: C5aR1 wild type, HEK293, BRET, mean±SEM, n=3, Table S5, read-out: EC50, β-arrestin2 recruitment
T2 construct: expressed in transfected cells; host or cells: HEK293
T2 sequence (P21730 1-350): T1 sequence (P21730 1-350)
Procedure: Briefly, HEK293 cells were transiently transfected with C5aR1-Nluc and mVenus-β-arrestin 2 or C5aR2-mVenus and Nluc-β-arrestin 2 constructs using PEI transfection reagent (YEASEN, 40816ES02) according to the manufacturer’s instruction. At 24 h post transfection, the cells were gently detached and seeded (100,000/well) onto 96-well white plates in DMEM containing 5% FBS. On the next day, cells were washed once with Phosphate Buffered Saline (PBS) and incubated in HBSS containing 20 mM HEPES, pH 7.4, with coelenterazine h (5 μM, YEASEN, 40906ES02) for 1 h (37 °C, 5% CO2). […] We carried out the nonlinear regression (curve fit) dose-response function in GraphPad Prism 7 to yield the values of Emax and EC50.

C5aR1 [1] = assay: Bias calculation, Gi protein signaling vs β-arrestin 2 recruitment; format: cell-based, human; conditions: from curve fit parameters, endogenous agonist C5a as reference; β value > 0 Gi protein-biased, < 0 β-arrestin-biased
Procedure: The measurement of cAMP inhibition and β-arrestin recruitment in our study was performed as described. Besides, the parameters used below were based on the curve fits of the combined datasets described above.

C5aR1 [2] = assay: Biased antagonism in competition with C5a (Gi-protein signaling vs β-arrestin 2 recruitment); format: cell-based, human; conditions: HEK293
Procedure: To measure cAMP inhibition effects on the forskolin-induced cAMP accumulation of C5aR1, the GloSensor cAMP assay (Promega) was performed as described in the previous study.[59] Briefly, Flag-tagged wild-type human C5aR1 was co-expressed with GloSensor plasmid in HEK293 cells in 6-well culture plates. After at least 24 h, transfected cells were harvested and suspended in assay buffer Hank’s Balanced Salt Solution (HBSS) containing 10 mM HEPES, pH 7.4, with an additional 3% v/v dilution of the D-Luciferin-Potassium Salt (YEASEN, 40902ES01). […] Finally, the luminescence signals were counted on the Synergy H1 microplate reader (BioTek). […]
The C5a-mediated β-arrestin 2 recruitment to C5aR1 and C5aR2, respectively, was measured using BRET-based assay as previously described.[36],[61],[62] […] The baseline BRET light emissions (460–485 nm and 520–545 nm) were monitored by the Synergy H1 microplate reader (BioTek). After the incubation of different diluted concentrations of agonist with or without antagonist for 10 min, the second BRET light emissions were measured and the ligand-induced BRET ratio was calculated by subtracting the acceptor (mVenus, 520–545 nm) over donor (Nluc, 460–485 nm) emission ratio of the vehicle-treated wells from that of the ligand-treated wells. […]

| EC50 (C5aR1 wild type) [nM] | EC50 (C5aR1-WT) [nM] | Compound | Signaling bias (bias factor, in words) (C5aR1 [1]) | Biased antagonism (in words) (C5aR1 [2]) |
| --- | --- | --- | --- | --- |
| 455 ± 34.9 | 155000 ± 59000 | CC(=O)N[C@@H](Cc1ccccc1)C(=O)N[C@@H](CCCCN)C(=O)N1CCC[C@H]1C(=O)N[C@@H](CC(C)C)C(=O)N[C@@H](C)C(=O)N[C@@H](Cc1ccccc1)C(=O)N[C@H](C)C(=O)N[C@@H](CCCNC(=N)N)C(=O)O [BM213P6-F] (Ac-FKPLAF[dA]R-OH) |  |  |
|  |  | CC(=O)N[C@@H](Cc1ccccc1)C(=O)N[C@@H](CCCCN)C(=O)N1CCC[C@H]1C(=O)N[C@@H](CC(C)C)C(=O)N[C@@H](C)C(=O)N[C@@H](CC(C)C)C(=O)N[C@H](C)C(=O)N[C@@H](CCCNC(=N)N)C(=O)O [BM213P6-L] (Ac-FKPLAL[dA]R-OH; C-terminus assumed) | increased β-arrestin-biased features compared to BM213 |  |
|  |  | CCC[C@H](NC(=O)[C@H](C)NC(=O)[C@H](CC(C)C)NC(=O)[C@@H]1CCCN1C(=O)[C@H](CCCCN)NC(=O)[C@H](Cc1ccccc1)NC(C)=O)C(=O)N[C@H](C)C(=O)N[C@@H](CCCNC(=N)N)C(=O)O [BM213P6-Nva] (Ac-FKPLA[Nva][dA]R-OH) | increased β-arrestin-biased features compared to BM213 |  |
| 35.5 ± 4.23 | 2590 ± 110 | CC(=O)N[C@@H](Cc1ccccc1)C(=O)N[C@@H](CCCCN)C(=O)N1CCC[C@H]1C(=O)N[C@@H](CC(C)C)C(=O)N[C@@H](C)C(=O)N[C@H](C(=O)N[C@H](C)C(=O)N[C@@H](CCCNC(=N)N)C(=O)O)C(C)C [BM213P6-V] (Ac-FKPLAV[dA]R-OH) |  |  |
|  |  | Cc1ccc(NC(=O)[C@H]2CCCN(C(=O)c3c(C)cccc3F)[C@H]2c2ccc(NC3CCCC3)cc2)cc1C(F)(F)F [avacopan] |  | biased inhibition toward β-arrestin recruitment over G protein coupling |
|  |  | PMX53 |  | the opposite |
